Counter-ions that a name gives are not always drawn.
How the values were obtained:
hepatitis B virus = test: antiviral action on hepatitis B virus in HepG2.2.15 cells (HBV DNA dot-blot hybridization); format: cell-based; details: 96 h, 2 x 4 days incubation, intra- or extracellular hepatitis B-specific DNA band reduced by 50% vs untreated sample
Description: The antiviral action of the compounds according to the invention on hepatitis B virus was investigated by methods based on those described by M. A. Sells et al., Proc. Natl. Acad. Sci. 84, 1005-1009 (1987) and B. E. Korba et al., Antiviral Research 19, 55-70 (1992).
The antiviral tests were carried out in 96-well microtitre plates. The first vertical row of the plate received only growth medium and HepG2.2.15 cells. It served as virus control.
Stock solutions of the test compounds (50 mM) were initially dissolved in DMSO, and further dilutions were prepared in the HepG2.2.15 growth medium. The compounds according to the invention were usually pipetted in a test concentration of 100 μM (lst test concentration) in each case into the second vertical test row of the microtitre plate and subsequently diluted in twofold steps 2^10 times in growth medium +2% by weight fetal calf serum (volume 25 μl).
Each well of the microtitre plate then contained 225 μl of HepG2.2.15 cell suspension (5×10^4 cells/ml) in growth medium +2% by weight of fetal calf serum. The test mixture was incubated at 37° C. and 5% CO2 (v/v) for 4 days.
The supernatant was then aspirated off and discarded, and the wells received 225 μl of freshly prepared growth medium. The compounds according to the invention were each added anew as 10-fold concentrated solution in a volume of 25 μl. The mixtures were incubated for a further 4 days.
The supematants/cells were then harvested and sucked by means of a vacuum onto 96-well dot-blot chambers covered with a nylon membrane (in accordance with the manufacturer's information).
After the supernatants or lysed cells had been transferred to the nylon membrane of the blot apparatus (see above), the intra- or extracellular supernatants of the HepG2.2.15 cells were denatured (1.5 M NaCl/0.5 N NaOH), neutralized (3 M NaCl/0.5 M Tris HCl, pH 7.5) and washed (2× SSC). The DNA was then baked onto the membrane by incubating the filters at 120° C. for 2-4 hours.
Detection of the viral DNA from the treated HepG2.2.15 cells on the nylon filters was easily carried out with non-radioactive, digoxigenin-labelled hepatitis B-specific DNA probes, each of which was labelled with digoxigenin, purified and employed for the hybridization in accordance with the manufacturer's information.
The prehybridization and hybridization took place in 5× SSC, 1× blocking reagent, 0.1% by weight N-lauroylsarcosine, 0.02% by weight SDS and 100 μg of herring sperm DNA. The prehybridization took place at 60° C. for 30minutes, and the specific hybridization with 20 to 40 ng/ml of the digoxigenized, denatured HBV-specific DNA took place at 60° C. for 14 hours. The filters were then washed.
The immunological detection of the digoxigenin-labelled DNA took place in accordance with the manufacturer's information:
The filters were washed and prehybridized in a blocking reagent (in accordance with the manufacturer's information). Hybridization was then carried out with an anti-DIG antibody coupled to alkaline phosphatase for 30 minutes. After a washing step, the substrate of alkaline phosphatase, CSPD, was added, incubated with the filters for 5 minutes, then packed in plastic film and incubated at 37° C. for a further 15 minutes. The chemiluminescence of the hepatitis B-specific DNA signals was visualized by exposing the filters to an X-ray film (incubation depending on signal strength: 10 minutes to 2 hours).
The half-maximum inhibitory concentration (IC50, 50% inhibitory concentration) was determined as the concentration at which the intra- or extracellular hepatitis B-specific band was reduced by the compound according to the invention by 50% compared with an untreated sample.

| melting point | SMILES | IC50 (hepatitis B virus) |
| --- | --- | --- |
| 196 °C | O=C(O)CCC1C(=O)c2ccc(-c3ccccc3)cc2OC12CCCCC2 (stereo not drawn) |  |
| 80 °C | N#CCCC1C(=O)c2cc(F)c(F)cc2OC12CCCCC2 (stereo not drawn) |  |
| 145 to 149 °C | N#CCCC1(CCC#N)C(=O)c2ccc(Br)cc2OC12CCCCC2 |  |
| 190 to 195 °C | N#CCCC1(CCC#N)C(=O)c2ccc(-c3cccnc3)cc2OC12CCCCC2 |  |
| 61 to 63 °C | N#CCCC1C(=O)c2ccc(-c3ccc(F)cc3)cc2OC12CCCCC2 (stereo not drawn) |  |
|  | N#CCCC1C(=O)c2ccc(-c3ccc(F)c(F)c3)cc2OC12CCCC2 (stereo not drawn) [Example 82] | 2 to 120 nM |
|  | N#CCCC1C(=O)c2ccc(-c3cccc(C#N)c3)cc2OC12CCCC2 (stereo not drawn) [Example 97] | 2 to 120 nM |
|  | N#CCCC1C(=O)c2ccc(-c3ccc(F)c(F)c3)cc2OC12CCC2 (stereo not drawn) [Example 99] | 2 to 120 nM |
|  | N#CCCC1C(=O)c2ccc(-c3cccc([N+](=O)[O-])c3)cc2OC12CCCC2 (stereo not drawn) [Example 116] | 2 to 120 nM |
|  | N#CCCC1C(=O)c2ccc(-c3cccc(N)c3)cc2OC12CCCCC2 (stereo not drawn) [Example 132, 3-(2-Cyanoethyl)-7-(3-aminophenyl)spiro[2H-1-benzopyran-2,1′-cyclohexan]-4(3H)-one Hydrochloride] | 2 to 120 nM |

| SMILES | melting point | IC50 (hepatitis B virus) |
| --- | --- | --- |
| Cc1cccc(-c2ccc3c(c2)OC2(CCCCC2)C(CCC#N)C3=O)c1 (stereo not drawn) [Example 76] | 86 to 90 °C | 2 to 120 nM |

— US20020082264A1, “Medicaments for viral diseases” (priority 2000, published 2002)
